Tests used:
[1] = test system: splenocytes from HLA-A*0201 transgenic C57BL/6 mice; assay: IFN-γ ELISPOT of splenocytes restimulated with peptide; format: cell-based, mouse
Outline: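 HLA-A*0201 transgenic C57BL/6 mice primed and boosted intranasally 20 days apart with 1×10^7 pfu rAd-F0 or 1×10^4 live RSV B1; splenocytes taken 10 days post-boost. Splenocytes restimulated 48 h at 37°C with 2 µg individual RSV F 9-mer peptides; spots counted, expressed per 5×10^5 splenocytes.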

[2] = test system: pulmonary CD8+ T lymphocytes; assay: Number of CD8+ T cells in the lungs by flow cytometry after RSV challenge; format: in vivo, mouse; conditions: day 4 post RSV infection; flow cytometry of lung homogenate
Procedure: Whole lungs were perfused with 5 mL 1× PBS before excision. The isolated lung tissues were incubated with 1 µg/mL collagenase for 30 min before homogenizing with the iron mesh. The homogenate was centrifuged at 1,000 rpm for 10 min at 4°C to sediment the pulmonary cells. The cells were washed with 1× PBS and then resuspended in 1× PBS for further analysis by real-time RT-PCR and flow cytometry. For pulmonary IFN-γ detection, 5×10^6/mL cells were cultured with 10 U/mL recombinant IL-2 for 2 days and the supernatants were collected for ELISA.
Figure 5 Induction of pulmonary IFN-γ and CTL activity in peptide immunized transgenic mice challenged with RSV. At day 4 post RSV infection, lung homogenates were prepared and the following were measured. (A) IFN-γ expression by ELISA, and (B) the number of CD8^+ T cells in the lungs by flow cytometry using PE-cy5-labeled anti-CD8 antibody. (C). Enumeration of CTL activity in the lungs of mice immunized with CD8 peptide epitopes and challenged with RSV. […] The cell mixtures were labeled with 7-AAD and analyzed by flow cytometry. Results are expressed as mean percentage of 7-AAD/CFSE positive cells normalized with un-pulsed DCs. […]

YMLTNSELL [peptide 14, HLA-A*0201-restricted 9-mer synthetic peptide from F protein of RSV-B1 strain]
IFN-γ ELISPOT, RSV ([1]; splenocytes of HLA-Tg B6 mice primed and boosted i.n. with 10^4 pfu RSV-B1, restimulated with 2 µg peptide, representative of two experiments, five mice per group): 97 cytokine-secreting cells per 5×10^5 splenocytes
IFN-γ ELISPOT, rAd-F0 ([1]; splenocytes of HLA-Tg B6 mice primed and boosted i.n. with 10^7 pfu rAd-F0, restimulated with 2 µg peptide, representative of two experiments, five mice per group): 200 cytokine-secreting cells per 5×10^5 splenocytes
IFN-γ level in restimulated splenocytes (ELISPOT, text grading) ([1]; splenocytes of rAd-F0- or RSV B1-primed and boosted HLA-Tg B6 mice, high = over 100 spots, moderate = over 50 spots): over 100 spots
pulmonary CD8+ T cell numbers vs vehicle immunization [2]: lower
